According to patent US20150315154A1 (COUNCIL OF SCIENTIFIC & INDUSTRIAL RESEARCH, priority 2012, published 2015):

Tests used:
in vitro = conditions: African green monkey, COS-1 cells (non-cancerous)
Source text: (§3) The absorption obtained with reduced formazan with cells in the absence of lipids was taken to be 100. The assay was done after 24 (A) and 48 (B) hrs of the treatment.
(§4) The yellow tetrazolium salt (MTT) is reduced by mitochondrial dehydrogenase enzyme from metabolically active cells to form insoluble purple formazan crystals, which are solubilized by the addition of a mixture of DMSO & MeOH. The color can then be quantified by spectrophotometric method. For each cell type a linear relationship between cell number and absorbance is established, enabling accurate, straightforward quantification of changes in proliferation.
(§5) Cells were seeded at a density of 10000 (for B16F10, A549, MCF-7 & CHO) Or 15000 (for Raw264.7) per well in a 96-well plate for 18-24 h before the treatment. Cells were incubated with the liposomes of the presently described histidinylated cationic amphiphiles in the concentration range 40-16 μmol/mL in serum free medium. Immediately before the treatment, cells plated in the 96-well plate were washed with PBS (2×100 μL). After 4 h of incubation, the medium was replaced with fresh complete medium containing 10% FBS. The 10 μl of freshly prepared MTT solution in PBS (5 mg/mL) was added to each well of the plate after 24 or 48 h. The yellow tetrazolium salt (MTT) was reduced by mitochondrial dehydrogenase enzyme from metabolically active cells to form insoluble purple formazan crystals, which are solubilized by the addition of a mixture of DMSO & MeOH. The intensities of color were then quantified by spectrophotometric means. For each cell type a linear relationship between cell number and absorbance was established, enabling accurate, straightforward quantification of changes in proliferation.

[1] = test system: CHO cells (Chinese hamstar ovarian cancer cells); test: MTT cell viability assay, CHO cells; assay type: cell-based, Chinese hamster; conditions: CHO cell line; after 24 h as well as after 48 h
[2] = test system: mRNA of Bcl-2, Bcl-xL, BAX, Caspase 3, Caspase 9 in A549 cells; test: Semi-quantitative RT-PCR of apoptosis related genes in A549 cells; assay type: cell-based, human; conditions: 25 μM/mL, 24 h, vs untreated cells
Method: FIG. 11 Describes reverse transcription-PCR analysis of (BAX, BAK, Caspase 3 & 9) and anti-apoptotic genes (Bcl-2, Bcl-xL & NF-kB) in A549 cells after 24 h treatment with histidinylated lipids. […] After 4 h the medium was discarded and 3 mL of DMEM medium (Sigma) containing 10% fetal bovine serum was added to each well and left for 24 h. After 24 h, mRNAs were extracted from all the cells, cDNA was synthesized by Reverse transcription reaction and amplified by Polymerase Chain Reaction and finally resolved in 2% agarose gel.
Next, toward obtaining mechanistic insights into the origin of the observed in-vitro apoptosis inducing properties of the presently disclosed histidinylated lipids, we conducted conventional RT-PCR (Reversed transcriptase polymerase chain reaction) assays. Effect of the histidinylated lipids on the mRNA expression of various apoptosis related genes were analyzed by RT-PCR. The human lung carcinoma (A549) cells as a reference, were treated with the liposomal formulations of the histidinylated lipid containing DOPC & helper lipid Q16TG (25 μM/mL) and untreated cells were used as control. After 24 h, the total mRNA was isolated by conventional method using trizol. RT-PCR products were resolved on a 2% agarose gel electrophoresis and visualized with ethidium bromide. Our findings are consistent with the apoptosis inducing abilities of the presently disclosed histidinylated lipids being mediated via inhibition of transcription of the anti-apoptotic Bcl-2 & Bcl-xL genes & via activation of pro-apoptotic BAX & BAK signal transduction pathways. […] 18S m-RNA was used as loading control for all these lanes (FIG. 11).
Semi-quantitative RT-PCR analysis was performed to measure the changes in gene expression of treated cells in contrast to the untreated cells. A549 cells (ATCC) were seeded at a density of 10^6 cells/well in a 6 well plate usually 18-24 h before transfection. […] Cells were washed with phosphate-buffered saline (PBS), pH 7.4 (1×100 μL) and the 1 mL liposomal solutions were added to the cells. […] Then the cells were incubated at a humidified atmosphere containing 5% CO2 at 37° C. for 24 h. After 24 h of transfection, lipoplex treated and untreated cells were lysed directly in 6-well plates with 1 mL of TRIzol® reagent (Invitrogen) following removal of media and washing with PBS (1 mL). The cells were dissolved in TRI Reagent and cell lysates were pipetted several times to clear the haziness. Cell lysates were taken in 1.5 mL centrifuge tubes, after 10 min 0.2 mL chloroform was added. The samples were covered tightly and shaken vigorously for 15 sec, incubated for 10 min at room temperature and centrifuged at 14,000×g for 15 min at 4° C. Following centrifugation, the mixture separates into a lower red phenol-chloroform phase, interphase and the colourless upper aqueous phase. RNA remains exclusively in the aqueous phase whereas DNA and proteins are in the interphase and organic phase. Aqueous phase was transferred in to a fresh tube; 0.8 mL of isopropanol was added and mixed with pipette, kept for 15 min at −20° C. and centrifuged at 20,000 g for 20 min at 4° C. The supernatant was removed and the RNA pellet was washed with 500 μL cold 75% ethanol and centrifuged at 20,000 g for 10 min at 4° C. Ethanol was aspirated out and the pellet air-dried by inverting the tube. Finally the RNA pellet was dissolved in 15 μL of DEPC treated water, the ODs measured at 260 and 280 nm and the concentrations and purities of RNAs were calculated.

B16F10 melanoma tumor = test: Tumour growth inhibition assay, B16F10 melanoma in C57BL/6J mice; assay type: in vivo, mouse; conditions: liposomes 1:1:1 with DOPC:Q16TG injected at tumour site on day 14, 16, 18, 21, 24
[3] = test system: A549 cells (human lung carcinoma cells); test: cells; conditions: A549, 24 h, read-out: cell viability
Source text: as §3, §4, §5

[4] = MTT cell viability assay, normal RAW 264.7 cells; assay type: cell-based; conditions: mouse, RAW 264.7 cells (non-cancerous mouse macrophage cells), after 24 and 48 h
[5] = test system: A549 cells (human lung carcinoma); test: FITC-Annexin V / PI flow cytometry apoptosis assay, A549 cells; assay type: cell-based; conditions: 25 μM/mL, 1:1:1 lipid:DOPC:Q16TG, 24 h
Source text: Significant increase of both FITC and PE signal in histidinylated lipid treated A549 cells confirm apoptosis inducibility property of these lipids after 24 hrs. In a flow cytometric quadrant (FITC vs PE), the lower left (LL) panel represents normal cells and lower right (LR) panel represents early apoptotic cells which increase FITC signal only. Whereas upper right (UR) panel represents late apoptotic cells which increases both FITC and PE signaling and upper left (UL) panel represents necrotic cell only which increases PE signal only. […]
(§1) To quantify apoptotic cell death, we studied the in vitro apoptosis induction efficacy of the presently disclosed histidinylated cationic amphiphiles in mouse melanoma (B16F10) and human lung carcinoma (A549) as model malignant cells by flow cytometry using the FITC-Annexin V Apoptosis Detection Kit (Sigma). […]
(§2) B16F10 & A549 cells were treated with all four histidinylated lipids and liposomal formulation of hydrophobic anti-cancer drug dexamethasone containing DOPC and the helper lipid Q16TG (in 1:1:1 mole ratio of histidinylated lipid:DOPC:Q16TG, 25 μM/mL). […] After 24 h of treatment, cells were stained with annexin V and PI (according to manufacturer protocol, Sigma) and analysed in a flow cytometer (BD FacsCanto II). […]

[6] = test system: B16F10 cells (mouse melanoma); test: FITC-Annexin V / PI flow cytometry apoptosis assay, B16F10 cells; assay type: cell-based; conditions: 25 μM/mL, 1:1:1 lipid:DOPC:Q16TG, 24 h
Source text: Significant increase of both FITC (fluorescence isothio cyanate) and PE (phycoerythrin) signal in histidinylated lipid treated B16F10 cells confirm apoptosis inducing property of these lipids after 24 hrs. In a flow cytometric quadrant (FITC vs PE), the lower left=(LL) panel represents normal cells and lower right (LR) panel represents early apoptotic cells which increase FITC signal only. Whereas upper right (UR) panel represents late apoptotic cells which increases both FITC and PE signaling and upper left (UL) panel represents necrotic cell only which increases PE signal only. […]
as §1, §2

[7] = test system: non-cancerous healthy COS-1 cells; conditions: normal COS-1 cells; after 24 and 48 h
Source text: as §3, §4, §5

Compound | viability (in vitro) [%] | cytotoxicity [1] | Bcl-2 mRNA level [2] | Bcl-xL mRNA level [2] | Caspase 3 expression [2] | Caspase 9 expression [2] | expression of pro-apoptotic gene BAX [2] | tumor growth inhibition (B16F10 melanoma tumor) | viability at 40 µM [3] [%] | viability [4] [%] | apoptosis induction (annexin V / PI) [5] | apoptosis induction (annexin V / PI) [6] | cell viability [7] [%]
CCCCCCCCCCCCCCCCOC(=O)C[C@H](NC(=O)[C@@H](N)Cc1c[nH]cn1)C(=O)OCCCCCCCCCCCCCCCC | ~70 | most potent cytotoxicity | significantly decreased mRNA levels | significantly decreased mRNA levels | up regulation | up regulation | up regulation | highest tumor growth inhibition | 20 to 40 | > 80 | enhanced apoptosis | enhanced apoptosis | –
CCCCCCCCCCCCCCCCCCOC(=O)C[C@H](NC(=O)[C@@H](N)Cc1c[nH]cn1)C(=O)OCCCCCCCCCCCCCCCCCC | ~70 | – | did not show significant down regulation | did not show significant down regulation | up regulation | up regulation | up regulation | moderate tumour growth inhibition | 20 to 40 | > 80 | – | – | –
CCCCCCCCCCCCCCCCOC(=O)CC[C@H](NC(=O)[C@@H](N)Cc1c[nH]cn1)C(=O)OCCCCCCCCCCCCCCCC | ~70 | most potent cytotoxicity | significantly decreased mRNA levels | significantly decreased mRNA levels | up regulation | up regulation | up regulation | highest tumor growth inhibition | 20 to 40 | > 80 | enhanced apoptosis | enhanced apoptosis | –
CCCCCCCCCCCCCCCCCCOC(=O)CC[C@@H](NC(=O)[C@@H](N)Cc1ncc[nH]1)C(=O)OCCCCCCCCCCCCCCCCCC.Cl.Cl [HE-18, 2-((S)-2-ammonio-3-((R)-1,5-bis(octaadecyloxy)-1,5-dioxopentan-2-ylamino)-3-oxopropyl)-1H-imidazol-3-iumchloride] | – | most potent cytotoxicity | did not show significant down regulation | did not show significant down regulation | up regulation | up regulation | up regulation | moderate tumour growth inhibition | – | – | – | – | ~70
